{
  "source": "patent US6800645B1",
  "about": "“Substituted azabicyclic compounds” (Aventis Pharma Limited, priority 1996, dated 2004)",
  "data": [
    {"values": [
      {"compound": "COCc1nc2c(OC)ccc(C(=O)Cc3ccncc3)c2[nH]1", "note": "[Example 4, 1-(7-Methoxy-2-methoxymethyl-3H-benzimidazol-4-yl)-2-(4-pyridyl)ethanone]", "melting point": "218 to 220 °C (dec.)"},
      {"compound": "COCc1nc2c(OC)ccc(C(O)(Cc3ccncc3)Cc3ccncc3)c2[nH]1", "note": "[Example 5, 1,3-bis-(4-pyridyl)-2-(7-methoxy-2-methoxymethyl-3H-benzimidazol-4-yl)-propan-2-ol]", "melting point": "210 °C (dec.)"},
      {"compound": "Cc1ccc(S(=O)(=O)n2cc(C=O)c3ccc(C(=O)Nc4c(Cl)cncc4Cl)cc32)cc1", "note": "[Example 17, N-(3,5-Dichloro-pyridin-4-yl)-3-formyl-1-(toluene-4-sulphonyl)-1H-indole-6-carboxamide]", "melting point": "245 °C"},
      {"compound": "COc1ccc(Cn2cc(C)c3ccc(C(=O)c4ccccc4)cc32)cc1", "note": "[Example 24, [1-(4-Methoxy-benzyl)-3-methyl-1H-indol-6-yl]-phenyl methanone]", "melting point": "146 to 147 °C"}
    ]}
  ]
}
